Among the data in ChEMBL document CHEMBL1126365, “Mechanism-based inactivation of mandelate racemase by propargylglycolate” (Bioorg Med Chem Lett, 1992) are K inact values, retold here.

The test system of test [1] is Pseudomonas putida. As to the kind of experiment: Kinetic inactivation against mandelate racemase from Pseudomonas putida ATCC 12633.
In test [2] the test system is Pseudomonas putida. The experiment in a line: Kinetic inactivation against mandelate racemase from Pseudomonas putida ATCC 12633 in a solution of D2O.

On to `O=C(O)[C@@H](O)c1ccccc1`, for which the figures for the K inact in the test with Pseudomonas putida [1] and in the test on Pseudomonas putida [2] were 0.28 min⁻¹ and 0.2 min⁻¹, respectively.
